Reference: publication PMC12197453 (Viruses, 2025)

Columns and labels:
293T cells = experiment: Cytotoxicity (Cell Counting Kit-8) in 293T cells; type: cell-based; conditions: 10 μM, 48 h
rJEV-EGFP [1] = experiment: Inhibition of rJEV-EGFP replication in BHK-21 cells (green fluorescence); type: cell-based, Japanese encephalitis virus; conditions: 10 μM, 48 h post-treatment, vs DMSO
A549 cells = experiment: Cytotoxicity assay (Cell Counting Kit-8) in A549 cells; type: cell-based; conditions: 48 h; for cytotoxicity (cell viability): 10 μM; for CC50: Cell Counting Kit-8, read-out: CC50 (50% cytotoxic concentration)
JEV-GFP replicon = experiment: Inhibition of JEV-GFP replicon replication in transfected BHK-21 cells; type: cell-based, Japanese encephalitis virus; conditions: 48 h, BHK-21 transfectants; for NS1 gene expression of the JEV-GFP replicon (library screening): screen of 20 bioactive compounds, qRT-PCR
BHK-21 cells = experiment: Cytotoxicity (Cell Counting Kit-8) in BHK-21 cells; type: cell-based; conditions: 10 μM, 48 h
rJEV-EGFP [2] = experiment: Inhibition of rJEV-EGFP replication in A549 cells; type: cell-based, Japanese encephalitis virus; conditions: for intensities of green fluorescence produced by rJEV-EGFP replication: 10 μM, vs DMSO; for intensities of green fluorescence produced by rJEV-EGFP replication / levels of the JEV NS1 gene (qRT-PCR): 48 h post-treatment, A549 cells; for SI (Selectivity Index): SI = CC50/EC50, A549 cells; for levels of the JEV NS1 gene (qRT-PCR): different concentrations
rJEV-EGFP [3] = experiment: Inhibition of rJEV-EGFP replication in 293T cells (green fluorescence); type: cell-based, Japanese encephalitis virus; conditions: 10 μM, 48 h post-treatment, vs DMSO
[4] = Cytotoxicity assay (Cell Counting Kit-8) in A549 cells; type: cell-based; conditions: human, Cell Counting Kit-8, read-out: CC50 (50% cytotoxic concentration)

COc1cc(NC(C(=O)N2CCc3ccc(OC(F)(F)F)cc32)c2ccc(Cl)cc2)cc(OCCCC(=O)O)c1 (stereo not shown) [JNJ-A07]
cytotoxicity (cell viability) (293T cells): no significant cytotoxicities | intensities of green fluorescence produced by rJEV-EGFP replication (rJEV-EGFP [1]): remarkably reduced | cytotoxicity (cell viability) (A549 cells): no significant cytotoxicities | CC50 (A549 cells): 29.9 µM | intensity of green fluorescence of JEV-GFP replicon (JEV-GFP replicon; 10 μM, vs DMSO): significantly reduced | levels of the NS1 gene of JEV-GFP replicon (qRT-PCR) (JEV-GFP replicon; 10 μM, vs DMSO): reduced | NS1 gene expression of the JEV-GFP replicon (library screening) (JEV-GFP replicon): higher inhibitory effect | cytotoxicity (cell viability) (BHK-21 cells): no significant cytotoxicities | intensities of green fluorescence produced by rJEV-EGFP replication (rJEV-EGFP [2]): remarkably reduced | SI (Selectivity Index) (rJEV-EGFP [2]): 2296.92 | levels of the JEV NS1 gene (qRT-PCR) (rJEV-EGFP [2]): significantly decreased | intensities of green fluorescence produced by rJEV-EGFP replication (rJEV-EGFP [3]): remarkably reduced

C#C[C@@]1(O)[C@H](O)[C@@H](CO)O[C@H]1n1ccc2c(N)ncnc21 [NITD008]
cytotoxicity (cell viability) (293T cells): no significant cytotoxicities | intensities of green fluorescence produced by rJEV-EGFP replication (rJEV-EGFP [1]): remarkably reduced | cytotoxicity (cell viability) (A549 cells): no significant cytotoxicities | CC50 (A549 cells): 37.8 µM | levels of the NS1 gene of JEV-GFP replicon (qRT-PCR) (JEV-GFP replicon; 10 μM, vs DMSO): reduced | NS1 gene expression of the JEV-GFP replicon (library screening) (JEV-GFP replicon): higher inhibitory effect | cytotoxicity (cell viability) (BHK-21 cells): no significant cytotoxicities | intensities of green fluorescence produced by rJEV-EGFP replication (rJEV-EGFP [2]): remarkably reduced | levels of the JEV NS1 gene (qRT-PCR) (rJEV-EGFP [2]): significantly decreased | intensities of green fluorescence produced by rJEV-EGFP replication (rJEV-EGFP [3]): remarkably reduced

C=C[C@H]1C[N@@]2CC[C@H]1C[C@H]2[C@H](O)c1ccnc2ccc(OC)cc12 [Quinine]
cytotoxicity (cell viability) (293T cells): no significant cytotoxicities | intensities of green fluorescence produced by rJEV-EGFP replication (rJEV-EGFP [1]): remarkably reduced | CC50 at 48 h [4]: 45.8 µM | cytotoxicity (cell viability) (A549 cells): no significant cytotoxicities | levels of the NS1 gene of JEV-GFP replicon (qRT-PCR) (JEV-GFP replicon; 10 μM, vs DMSO): reduced | NS1 gene expression of the JEV-GFP replicon (library screening) (JEV-GFP replicon): higher inhibitory effect | cytotoxicity (cell viability) (BHK-21 cells): no significant cytotoxicities | intensities of green fluorescence produced by rJEV-EGFP replication (rJEV-EGFP [2]): remarkably reduced | SI (Selectivity Index) (rJEV-EGFP [2]): 282.47 | SI (Selectivity Index) (rJEV-EGFP [2]; listed as quinine): 334.16 | levels of the JEV NS1 gene (qRT-PCR) (rJEV-EGFP [2]): significantly decreased | intensities of green fluorescence produced by rJEV-EGFP replication (rJEV-EGFP [3]): remarkably reduced
